pIC50: −log10 of the molar value.
What follows are compounds tested on SUDHL6 cells (assay: Cell anti-proliferation assay ([3H] thymidine)). Conditions: Homo sapiens, SU-DHL-6, IC50 range.
Assay type: cell-based
Experimental: Compounds of the invention were profiled in a B-lymphocyte anti-proliferation assay using SUDHL6 cells. On Day 0, SUDHL cells (7,500) were plated in RPMI media with FBS medium in a 96-well plate. On Day 1, Compounds of the invention were charged on top of the plated cells with a 1% DMSO final concentration. On Day 3, [^3H] Thymidine was added at 100 nCi/well. On Day 4, the cells were harvested using a cell harvester on a GF/C filter mat and dried in a hot air oven. Cell readout was obtained using a scintillation counter, and the activity of the compound was determined as an IC50 value.

| SMILES | pIC50 |
| --- | --- |
| Nc1ncnc2c1c(-c1cc(O)cc(F)c1)nn2C1Cc2ccccc2C1 [compound 3, 3-(4-amino-1-(2,3-dihydro-1H-inden-2-yl)-1H-pyrazolo[3,4-d]pyrimidin-3-yl)-5-fluorophenol] | 5.00 to 6.00 |
| Nc1ncnc2c1c(-c1cc(O)cc(F)c1)nn2C1CCc2ccccc2C1 (centres unmarked) [compound 6, 3-(4-amino-1-(1,2,3,4-tetrahydronaphthalen-2-yl)-1H-pyrazolo[3,4-d]pyrimidin-3-yl)-5-fluorophenol] | 5.00 to 6.00 |

The compounds below were run against T1, TEC (Homo sapiens, UniProt P42680) (assay: TEC kinase profiling (BTK protocol)). Conditions: 0.3 μM compound.
T1 construct: purchased Reaction Biology Corporation
T1 sequence (P42680 1-631): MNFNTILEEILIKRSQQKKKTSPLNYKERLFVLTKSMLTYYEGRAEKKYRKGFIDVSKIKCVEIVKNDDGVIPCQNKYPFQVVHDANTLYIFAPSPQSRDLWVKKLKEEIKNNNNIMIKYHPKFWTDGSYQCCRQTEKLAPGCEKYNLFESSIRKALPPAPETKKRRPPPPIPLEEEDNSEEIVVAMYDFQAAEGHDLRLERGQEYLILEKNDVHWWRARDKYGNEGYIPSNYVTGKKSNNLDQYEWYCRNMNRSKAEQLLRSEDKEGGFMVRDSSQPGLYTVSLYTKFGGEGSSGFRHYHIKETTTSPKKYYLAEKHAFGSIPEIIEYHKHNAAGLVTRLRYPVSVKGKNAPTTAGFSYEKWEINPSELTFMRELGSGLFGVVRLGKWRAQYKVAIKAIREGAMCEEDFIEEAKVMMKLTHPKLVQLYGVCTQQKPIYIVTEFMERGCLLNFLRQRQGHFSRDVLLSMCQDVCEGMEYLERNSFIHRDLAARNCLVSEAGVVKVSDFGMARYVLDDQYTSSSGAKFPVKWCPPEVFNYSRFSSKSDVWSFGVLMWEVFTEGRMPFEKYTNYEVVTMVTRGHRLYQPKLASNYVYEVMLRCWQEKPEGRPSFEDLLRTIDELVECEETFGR
Assay type: biochemical
Experimental: BTK assay: In vitro profiling protein kinases was performed using the “HotSpot” assay platform. Briefly, specific kinase/substrate pairs along with required cofactors were prepared in reaction buffer. Compounds were prepared as 10 mM stock solutions in DMSO. Compounds were delivered into the reaction, followed 15-20 minutes later by addition of a mixture of ATP (Sigma, St. Louis Mo.) and ^33P ATP (Perkin Elmer, Waltham Mass.) to a final concentration of 10 μM. […] IC50 values and curve fits were obtained using Prism (GraphPad Software). Buffer Conditions: 20 mM Hepes (pH 7.5), 10 mM MgCl2, 1 mM EGTA, 0.02% Brij35, 0.02 mg/mL BSA, 0.1 mM Na3VO4, 2 mM DTT, 1% DMSO.

| TEC @ 0.3 μM (% Inh) | SMILES |
| --- | --- |
| 89.37 % Inh | Nc1ncnc2c1c(-c1cc(O)c(F)c(Cl)c1)cn2C1Cc2ccccc2C1 [compound 110, 5-[4-amino-7-(2,3-dihydro-1H-inden-2-yl)-7H-pyrrolo[2,3-d]pyrimidin-5-yl]-3-chloro-2-fluorophenol] |
| 61.02 % Inh | Nc1ncnc2c1c(-c1ccc(Cl)c(O)c1)nn2C1Cc2ccccc2C1 [Compound No. 56, 5-[4-amino-1-(2,3-dihydro-1H-inden-2-yl)-1H-pyrazolo[3,4-d]pyrimidin-3-yl]-2-chlorophenol] |
| 91.2 % Inh | Nc1ncnc2c1c(-c1cc(O)c(F)c(F)c1)cn2C1Cc2ccccc2C1 [Compound No. 101, 5-[4-amino-7-(2,3-dihydro-1H-inden-2-yl)-7H-pyrrolo[2,3-d]pyrimidin-5-yl]-2,3-difluorophenol] |
| 66.1 % Inh | Nc1ncnc2c1c(-c1ccc(F)c(O)c1)nn2C1CCc2ccccc2C1 (racemic) [Compound No. 26, 5-(4-amino-1-(1,2,3,4-tetrahydronaphthalen-2-yl)-1H-pyrazolo[3,4-d]pyrimidin-3-yl)-2-fluorophenol] |
| 56.91 % Inh | C=CC(=O)N1CC(n2nc(-c3cc(O)cc(F)c3)c3c(N)ncnc32)Cc2cc(C)ccc21 (single isomer, unassigned) [31b, 1-(3-(4-amino-3-(3-fluoro-5-hydroxyphenyl)-1H-pyrazolo[3,4-d]pyrimidin-1-yl)-6-methyl-3,4-dihydroquinolin-1(2H)-yl)prop-2-en-1-one] |
| 48.29 % Inh | N#Cc1cc(-c2cn(C3Cc4ccccc4C3)c3ncnc(N)c23)cc(O)c1F [compound 115, 5-[4-amino-7-(2,3-dihydro-1H-inden-2-yl)-7H-pyrrolo[2,3-d]pyrimidin-5-yl]-2-fluoro-3-hydroxybenzonitrile] |
| −3.89 % Inh | Nc1ncnc2c1c(-c1cc(O)c(F)c(C(F)(F)F)c1)nn2C1Cc2ccccc2C1 [Compound No. 102, 5-[4-amino-1-(2,3-dihydro-1H-inden-2-yl)-1H-pyrazolo[3,4-d]pyrimidin-3-yl]-2-fluoro-3-(trifluoromethyl)phenol] |
| 57.08 % Inh | C=CC(=O)N1CC(n2nc(-c3cc(O)cc(F)c3)c3c(N)ncnc32)Cc2cc(C)ccc21 (centres unmarked) [compound 31, 1-(3-(4-amino-3-(3-fluoro-5-hydroxyphenyl)-1H-pyrazolo[3,4-d]pyrimidin-1-yl)-6-methyl-3,4-dihydroquinolin-1(2H)-yl)prop-2-en-1-one] |
| 23.9 % Inh | Nc1ncnc2c1c(-c1cc(F)c3c(c1)NCCO3)nn2C1Cc2ccccc2C1 [Compound No. 84, 1-(2,3-dihydro-1H-inden-2-yl)-3-(8-fluoro-3,4-dihydro-2H-1,4-benzoxazin-6-yl)-1H-pyrazolo[3,4-d]pyrimidin-4-amine] |
| 42.69 % Inh | COc1ccc(-c2nn(C3Cc4ccccc4C3)c3ncnc(N)c23)cc1O [Compound No. 68, 5-[4-amino-1-(2,3-dihydro-1H-inden-2-yl)-1H-pyrazolo[3,4-d]pyrimidin-3-yl]-2-methoxyphenol] |
| 40.21 % Inh | Nc1ncnc2c1c(-c1cc(O)cc(F)c1)nn2C1Cc2ccc(F)cc2C1 (centres unmarked) [compound 57, 3-[4-amino-1-(5-fluoro-2,3-dihydro-1H-inden-2-yl)-1H-pyrazolo[3,4-d]pyrimidin-3-yl]-5-fluorophenol] |
| 87.72 % Inh | Nc1ncnc2c1c(-c1cc(O)c(Cl)c(Cl)c1)cn2C1Cc2ccccc2C1 [Compound No. 107, 5-[4-amino-7-(2,3-dihydro-1H-inden-2-yl)-7H-pyrrolo[2,3-d]pyrimidin-5-yl]-2,3-dichlorophenol] |
| 71.22 % Inh | Nc1ncnc2c1c(-c1cc(O)c(F)c(F)c1)nn2C1Cc2ccccc2C1 [Compound No. 81, 5-[4-amino-1-(2,3-dihydro-1H-inden-2-yl)-1H-pyrazolo[3,4-d]pyrimidin-3-yl]-2,3-difluorophenol] |
| 44.68 % Inh | COc1cc(-c2nn(C3Cc4ccccc4C3)c3ncnc(N)c23)ccc1C [Compound No. 49, 1-(2,3-dihydro-1H-inden-2-yl)-3-(3-methoxy-4-methylphenyl)-1H-pyrazolo[3,4-d]pyrimidin-4-amine] |
| 106.37 % Inh | Nc1ncnc2c1c(-c1ccc(Cl)c(O)c1)cn2C1Cc2ccccc2C1 [Compound No. 93, 5-[4-amino-7-(2,3-dihydro-1H-inden-2-yl)-7H-pyrrolo[2,3-d]pyrimidin-5-yl]-2-chlorophenol] |
| 88.12 % Inh | Nc1ncnc2c1c(-c1cc(O)cc(F)c1)cn2C1Cc2ccccc2C1 [Compound No. 63, 3-[4-amino-7-(2,3-dihydro-1H-inden-2-yl)-7H-pyrrolo[2,3-d]pyrimidin-5-yl]-5-fluorophenol] |
| 102.76 % Inh | Nc1ncnc2c1c(-c1ccc(Cl)c(O)c1F)nn2C1Cc2ccccc2C1 [Compound No. 100, 3-[4-amino-1-(2,3-dihydro-1H-inden-2-yl)-1H-pyrazolo[3,4-d]pyrimidin-3-yl]-6-chloro-2-fluorophenol] |
| 10.01 % Inh | Nc1ncnc2c1c(-c1ccc3cc[nH]c3c1)nn2C1CCc2ccccc2C1 (racemic) [compound 18, 3-(1H-indol-6-yl)-1-(1,2,3,4-tetrahydronaphthalen-2-yl)-1H-pyrazolo[3,4-d]pyrimidin-4-amine] |

Same assay, conditions: 0.3 μM compound; 0.3 µM

| TEC @ 0.3 μM (% Inh) | SMILES |
| --- | --- |
| 41.28 % Inh | Nc1ncnc2c1c(-c1cc(O)cc(F)c1)nn2C1CCc2ccccc2C1 (single isomer, unassigned) [6a, 3-(4-amino-1-(1,2,3,4-tetrahydronaphthalen-2-yl)-1H-pyrazolo[3,4-d]pyrimidin-3-yl)-5-fluorophenol] |
| 27.3 % Inh | Nc1ncnc2c1c(-c1cc(O)cc(F)c1)nn2C1CCc2ccccc2C1 (single isomer, unassigned) [6b, 3-(4-amino-1-(1,2,3,4-tetrahydronaphthalen-2-yl)-1H-pyrazolo[3,4-d]pyrimidin-3-yl)-5-fluorophenol] |

Same assay, conditions: 10 dose IC50

| pIC50 | SMILES |
| --- | --- |
| 4.61 | C=CC(=O)N1CC(n2nc(-c3cc(O)cc(F)c3)c3c(N)ncnc32)Cc2cc(C)ccc21 (centres unmarked) [compound 31, 1-(3-(4-amino-3-(3-fluoro-5-hydroxyphenyl)-1H-pyrazolo[3,4-d]pyrimidin-1-yl)-6-methyl-3,4-dihydroquinolin-1(2H)-yl)prop-2-en-1-one] |
| 7.31 | Nc1ncnc2c1c(-c1ccc(F)c(O)c1)nn2C1CCc2ccccc2C1 (single isomer, unassigned) [Compound No. 26a, 5-(4-amino-1-(1,2,3,4-tetrahydronaphthalen-2-yl)-1H-pyrazolo[3,4-d]pyrimidin-3-yl)-2-fluorophenol] |
| 7.69 | Nc1ncnc2c1c(-c1ccc(F)c(O)c1)nn2C1Cc2ccccc2C1 [Compound No. 29, 5-(4-amino-1-indan-2-yl-pyrazolo[3,4-d]pyrimidin-3-yl)-2-fluoro-phenol] |
| 7.09 | Nc1ncnc2c1c(-c1ccc(F)c(O)c1)nn2C1CCc2ccccc2C1 (single isomer, unassigned) [Compound No. 26b, 5-(4-amino-1-(1,2,3,4-tetrahydronaphthalen-2-yl)-1H-pyrazolo[3,4-d]pyrimidin-3-yl)-2-fluorophenol] |
| 6.55 | Nc1ncnc2c1c(-c1cc(O)cc(F)c1)nn2C1CCc2ccccc2C1 (centres unmarked) [compound 6, 3-(4-amino-1-(1,2,3,4-tetrahydronaphthalen-2-yl)-1H-pyrazolo[3,4-d]pyrimidin-3-yl)-5-fluorophenol] |

| SMILES | pIC50 |
| --- | --- |
| Nc1ncnc2c1c(-c1ccc(Br)c(O)c1)nn2C1Cc2ccccc2C1 [compound 2, 5-(4-amino-1-(2,3-dihydro-1H-inden-2-yl)-1H-pyrazolo[3,4-d]pyrimidin-3-yl)-2-bromophenol] | 7.00 |
| Nc1ncnc2c1c(-c1cc(O)cc(F)c1)nn2C1Cc2ccccc2C1 [compound 3, 3-(4-amino-1-(2,3-dihydro-1H-inden-2-yl)-1H-pyrazolo[3,4-d]pyrimidin-3-yl)-5-fluorophenol] | 6.74 |
